Source: patent US20170042915A1, “LPA RECEPTOR MODULATORS FOR BROWN FAT DIFFERENTIATION” (The California Institute for Biomedical Research, priority 2015, published 2017)

Columns and labels:
[1] = system: Human Simpson-Golabi-Behmel syndrome (SGBS) preadipocytes; assay: Brown cell differentiation of SGBS preadipocytes, high content imaging with anti-UCP1 and LipidTox staining; assay type: cell-based; details: concentration not given; for % Brown (adipocytes): day 11, LipidTox and UCP1 positive; for % White (adipocytes): day 11, LipidTox positive, below UCP1 threshold; for UCP1 fold: day 11, UCP1 staining
Method: OF Media included 1% Anti-Anti, […] biotin, […] panthotenate, and DMEM:F12 (1:1) media. Growth media included OF Media and 10% Fetal Bovine Serum. Differentiation induction media included OF Media, 10 μg/mL Insulin, 0.5 mM IBMX, and 1 μM Dexamethasone. The maintenance media included OF media and 10 μg/mL Insulin.
Human Simpson-Golabi-Behmel syndrome (SGBS) preadipocyteswere cultured in T225 flasks containing Growth Media. Upon passaging, cells were trypsinized, collected, spun down at 1250 g for 5 minutes at 20° C. to pellet. Cells were then resuspended in growth media before seeding cells at optimal density to maintain 75-80% confluency before passaging every 3-4 days.
Compounds at varying concentrations (starting at 20 uM with 1:3 dilution) were spotted onto 384-well black clear bottom plates (Greiner). The negative control consisted of DMSO while positive controls contained 2 uM of Rosiglitazone (Cayman). 50 μL of SGBS cells in induction were seeded directly on top of compound at a concentration of 1.1×10^5 cells/mL (˜5500 cells/well). After 4 days of induction, media was changed to 50 μL of maintenance media. Every 2-4 days after, media was changed again with 50 μL maintenance media until day 11.
After 11 days of differentiation, cells were fixed with 10 μL of 32% Paraformaldehyde for 10 minutes, followed by 10 μL of 7% Triton X-100 for another 10 minutes. Media was then aspirated down to 5 μL, 25 μL of Blocking Buffer 1 (2% BSA and 2.5% goat serum) was added, and plates were incubated for 1 hour. Plates were then aspirated down to 5 μL and 25 μL of primary antibody was added for 16 hour incubation. Primary antibody containing UCP1 (Sigma; Rabbit; 1:100) was diluted in Blocking Buffer 2 (2% BSA).
The next day, plates were washed 3 times with 1× PBS and 25 μL of secondary antibody were added. Secondary antibody containing Hoechst (1:6000), Alex Fluor 647 goat Anti-Rabbit (1:1000), and HCS LipidTOX Green Neutral Lipid Stain (Life Technologies; 1:800) were diluted in Blocking Buffer 2 (2% BSA). After 1 hour of incubation at room temperature, plates were washed 3 times with 1× PBS and left in 50 μL of PBS. Plates were then sealed and imaged.
Plates were imaged using CellInsight CX5 High Content Screening (HCS) Platform. Total cell number was detected using Hoechstand images were used to quantify total adipocytes (met defined threshold of lipidtox staining intensity).

SGBS preadipocytes = assay: Brown adipocyte differentiation of SGBS preadipocytes with or without exogenous LPA; assay type: cell-based, human; details: day 11 SGBS adipocytes, compound during days 3-4 of induction, 10 μM LPA during days 1-4; FIG. 6A
Method: SGBS preadipocytes were plated in 384 plates as previously described but using induction media with or without the addition of 10 μM lysophosphatidic acid (LPA) for the first 2 days. On day 3, cells were treated with 10 μL of 6× concentration of compound 19 (final concentration was a 1:3 serial dilution starting at 20 μM) again with or without the addition of LPA. On day 5, media was changed to maintenance media until day 11. Staining and analysis of brown adipocytes based on UCP1 and lipid performed as described previously.

Row | SMILES | % Brown (adipocytes) ([1]; 1st of 3 sub-columns) [%] | % Brown (adipocytes) ([1]; 2nd of 3 sub-columns) [%] | % Brown (adipocytes) ([1]; 3rd of 3 sub-columns) [%] | % White (adipocytes) ([1]; 1st of 3 sub-columns) [%] | % White (adipocytes) ([1]; 2nd of 3 sub-columns) [%] | % White (adipocytes) ([1]; 3rd of 3 sub-columns) [%] | UCP1 fold ([1]; 1st of 3 sub-columns) [x] | UCP1 fold ([1]; 2nd of 3 sub-columns) [x] | UCP1 fold ([1]; 3rd of 3 sub-columns) [x] | induction of brown adipocyte differentiation in the presence of exogenous LPA (SGBS preadipocytes)
1 | Cc1ccc(CNC(=O)C2CCN(S(=O)(=O)c3cc(-c4noc(C5CC5)n4)sc3C)CC2)o1 [Compound 1] | 15 | 27 | 30 | 6 | 3 | 4 | 1.2 | 2.6 | 2.7 | –
2 | Cc1nc(-c2cc(S(=O)(=O)N3CCC(C(=O)NCCc4cccs4)CC3)c(C)s2)no1 [Compound 2] | 29 | 34 | 34 | 9 | 8 | 7 | 2.2 | 2.8 | 2.9 | –
3 | Cc1nn(-c2ccccc2)c(C)c1S(=O)(=O)N1CCC(C(=O)NCCc2cccs2)CC1 [Compound 3] | 20 | 28 | 30 | 10 | 8 | 5 | 1.6 | 2.1 | 2.9 | –
4 | Cc1sc(-c2noc(C3CCC3)n2)cc1S(=O)(=O)N1CCC(C(=O)NCc2ccco2)CC1 [Compound 4] | 17 | 22 | 30 | 5 | 7 | 5 | 1.5 | 1.6 | 2.6 | –
5 | Cc1sc(-c2noc(C(C)C)n2)cc1S(=O)(=O)N1CCC(C(=O)NCc2cccs2)CC1 [Compound 5] | 18 | 22 | 28 | 3 | 7 | 7 | 1.8 | 1.8 | 2.2 | –
6 | Cc1sc(-c2noc(C(C)C)n2)cc1S(=O)(=O)N1CCC(C(=O)N(C)Cc2ccco2)CC1 [Compound 6] | 14 | 23 | 29 | 6 | 6 | 5 | 1.2 | 1.7 | 2.4 | –
7 | Cc1ccc(C)c(-c2csc(Nc3ccc(S(=O)(=O)Nc4cc(C)on4)cc3)n2)c1 [Compound 9] | 18 | 21 | 31 | 5 | 6 | 6 | 1.5 | 1.9 | 2.7 | –
8 | COC(=O)c1ccc(NS(=O)(=O)c2ccc(-c3c(C)noc3C)cc2)cc1 [Compound 10] | 17 | 21 | 29 | 6 | 8 | 10 | 1.5 | 1.5 | 2.0 | –
9 | Cc1ccc(NS(=O)(=O)c2ccc(-c3c(C)noc3C)cc2)cc1Cl [Compound 11] | 18 | 22 | 24 | 4 | 6 | 11 | 1.7 | 1.8 | 1.7 | –
10 | COC(=O)CCSCc1ccc(-c2onc(C)c2NC(=O)OC(C)c2ccccc2Cl)cc1 (stereo not shown) [Compound 19] | – | – | – | – | – | – | – | – | – | attenuated induction of brown adipocyte differentiation
